Test results published in US8461107B2 (Merck Sharp & Dohme Corp., priority 2008, dated 2013).

Molecular target: T1, HCV genotype 1b (BK) NS3 modified with a R155K mutation (Hepatitis C virus genotype 1b, UniProt P26663, R1181K)
T1 construct: HCV genotype 1b (BK) NS3 modified with a R155K mutation
Assay: HCV NS3 protease time-resolved fluorescence (TRF) assay, NS3 protease 1b R155K Ki activity
Format: biochemical
Conditions: HCV genotype 1b (BK) NS3 with R155K mutation; TRF peptide substrate 100 nM; Ki derived from IC50
Summary of the method: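 Pre-incubation of NS3/NS4A protease (genotype 1b BK, R155K) with inhibitor for 30 min, then 1 h at room temperature with 100 nM TRF peptide substrate in pH 7.5 HEPES buffer with 10 mM DTT. Reaction quenched with pH 5.5 MES; time-resolved fluorescence read (ex 340/em 615 nm). Ki derived from four-parameter IC50 fit via IC50=Ki(1+[S]/KM).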

Work on C=C[C@@H]1C[C@]1(NC(=O)[C@@H]1C[C@@H]2CN1C(=O)[C@H](C1CCCC1)NC(=O)O[C@@H]1CCC[C@H]1C/C=C/Cn1c(cc3ccccc3c1=O)O2)C(=O)NS(=O)(=O)C1CC1 yielded a Ki of 100 to 500 pM.

C=C[C@@H]1C[C@]1(NC(=O)[C@@H]1C[C@@H]2CN1C(=O)[C@H](C(C)(C)C)NC(=O)O[C@@H]1CCC[C@H]1CCCCCn1c(cc3cc(OC)ccc3c1=O)O2)C(=O)NS(=O)(=O)C1CC1 [(3aR,7S,10S,12R,25aR)-7-tert-butyl-N-((1R,2S)-1-{[(cyclopropylsulfonyl)amino]carbonyl}-2-vinylcyclopropyl)-16-methoxy-5,8,19-trioxo-1,2,3,3a,5,6,7,8,11,12,21,22,23,24,25,25a-hexadecahydro-10H,19H-9,12-methanocyclopenta[18,19][1,10,3,6,12]dioxatriazacyclononadecino[12,11-b]isoquinoline-10-carboxamide] showed a Ki of less than 100 pM.

In the case of C=C[C@@H]1C[C@]1(NC(=O)[C@@H]1C[C@@H]2CN1C(=O)[C@H](C1CCCC1)NC(=O)O[C@@H]1CCC[C@H]1C/C=C/CCn1c(cc3ccc(F)cc3c1=O)O2)C(=O)NS(=O)(=O)C1CC1 [(3aR,7S,10S,12R,23E,25aS)-7-cyclopentyl-N-((1R,2S)-1-{[(cyclopropylsulfonyl)amino]carbonyl}-2-vinylcyclopropyl)-17-fluoro-5,8,19-trioxo-1,2,3,3a,5,6,7,8,11,12,21,22,25,25a-tetradecahydro-10H,19H-9,12-methanocyclopenta[18,19][1,10,3,6,12]dioxatriazacyclononadecino[12,11-b]isoquinoline-10-carboxamide], the Ki is reported as 100 to 500 pM.

Molecule C=C[C@@H]1C[C@]1(NC(=O)[C@@H]1C[C@@H]2CN1C(=O)[C@H](C1CCCC1)NC(=O)O[C@@H]1CCC[C@H]1CCCCCn1c(nc3cc(Br)ccc3c1=O)O2)C(=O)NS(=O)(=O)C1CC1 [(3aR,7S,10S,12R,25aR)-16-bromo-7-cyclopentyl-N-((1R,2S)-1-{[(cyclopropylsulfonyl)amino]carbonyl}-2-vinylcyclopropyl)-5,8,19-trioxo-1,2,3,3a,5,6,7,8,11,12,21,22,23,24,25,25a-hexadecahydro-10H,19H-9,12-methanocyclopenta[18,19][1,10,3,6,12]dioxatriazacyclononadecino[11,12-b]quinazoline-10-carboxamide] has a Ki of 100 to 500 pM.

C=C[C@@H]1C[C@]1(NC(=O)[C@@H]1C[C@@H]2CN1C(=O)[C@H](C1CCCC1)NC(=O)O[C@@H]1CCC[C@H]1CC/C=C/Cn1c(nc3ccccc3c1=O)O2)C(=O)NS(=O)(=O)C1CC1 [(3aR,7S,10S,12R,22E,25aS)-7-cyclopentyl-N-((1R,2S)-1-{[(cyclopropylsulfonyl)amino]carbonyl}-2-vinylcyclopropyl)-5,8,19-trioxo-1,2,3,3a,5,6,7,8,11,12,21,24,25,25a-tetradecahydro-10H,19H-9,12-methanocyclopenta[18,19][1,10,3,6,12]dioxatriazacyclononadecino[11,12-b]quinazoline-10-carboxamide] showed a Ki of less than 100 pM.

Molecule C=C[C@@H]1C[C@]1(NC(=O)[C@@H]1C[C@@H]2CN1C(=O)[C@H](C1CCCC1)NC(=O)O[C@@H]1CCC[C@H]1CCCCCn1c(nc3cccc(OC)c3c1=O)O2)C(=O)NS(=O)(=O)C1CC1 [(3aR,7S,10S,12R,25aR)-7-cyclopentyl-N-((1R,2S)-1-{[(cyclopropylsulfonyl)amino]carbonyl}-2-vinylcyclopropyl)-18-methoxy-5,8,19-trioxo-1,2,3,3a,5,6,7,8,11,12,21,22,23,24,25,25a-hexadecahydro-10H,19H-9,12-methanocyclopenta[18,19][1,10,3,6,12]dioxatriazacyclononadecino[11,12-b]quinazoline-10-carboxamide] has a Ki of 100 to 500 pM.

C=C[C@@H]1C[C@]1(NC(=O)[C@@H]1C[C@@H]2CN1C(=O)[C@H](C1CCCC1)NC(=O)O[C@@H]1CCC[C@H]1CCCCCCn1c(cc3ccccc3c1=O)O2)C(=O)NS(=O)(=O)C1CC1 [(3aR,7S,10S,12R,26aR)-7-cyclopentyl-N-((1R,2S)-1-{[(cyclopropylsulfonyl)amino]carbonyl}-2-vinylcyclopropyl)-5,8,19-trioxo-2,3,3a,5,6,7,8,11,12,21,22,23,24,25,26,26a-hexadecahydro-1H,10H,19H-9,12-methanocyclopenta[19,20][1,10,3,6,12]dioxatriazacycloicosino[12,11-b]isoquinoline-10-carboxamide] gave a Ki of 100 to 500 pM.

For CC[C@@H]1C[C@]1(NC(=O)[C@@H]1C[C@@H]2CN1C(=O)[C@H](C1CCCC1)NC(=O)O[C@@H]1CCC[C@H]1CCCCCn1c(nc3cc(-c4ccccc4)ccc3c1=O)O2)C(=O)NS(=O)(=O)C1CC1 [(3aR,7S,10S,12R,25aR)-7-cyclopentyl-N-((1R,2R)-1-{[(cyclopropylsulfonyl)amino]carbonyl}-2-ethylcyclopropyl)-5,8,19-trioxo-16-phenyl-1,2,3,3a,5,6,7,8,11,12,21,22,23,24,25,25a-hexadecahydro-10H,19H-9,12-methanocyclopenta[18,19][1,10,3,6,12]dioxatriazacyclononadecino[11,12-b]quinazoline-10-carboxamide], the Ki was 100 to 500 pM.

CC[C@@H]1C[C@]1(NC(=O)[C@@H]1C[C@@H]2CN1C(=O)[C@H](C1CCCC1)NC(=O)O[C@@H]1CCC[C@H]1CC/C=C/Cn1c(nc3cc(C(F)(F)F)ccc3c1=O)O2)C(=O)NS(=O)(=O)C1CC1 [(3aR,7S,10S,12R,22E,25aS)-7-cyclopentyl-N-((1R,2R)-1-{[(cyclopropylsulfonyl)amino]carbonyl}-2-ethylcyclopropyl)-5,8,19-trioxo-16-(trifluoromethyl)-1,2,3,3a,5,6,7,8,11,12,21,24,25,25a-tetradecahydro-10H,19H-9,12-methanocyclopenta[18,19][1,10,3,6,12]dioxatriazacyclononadecino[11,12-b]quinazoline-10-carboxamide] showed a Ki of less than 100 pM.

Work on C=C[C@@H]1C[C@]1(NC(=O)[C@@H]1C[C@@H]2CN1C(=O)[C@H](C1CCCC1)NC(=O)O[C@@H]1CCC[C@H]1CCCCCn1c(cc3cc(OC)ccc3c1=O)O2)C(=O)NS(=O)(=O)C1CC1 [(3aR,7S,10S,12R,25aR)-7-cyclopentyl-N-((1R,2S)-1-{[(cyclopropylsulfonyl)amino]carbonyl}-2-vinylcyclopropyl)-16-methoxy-5,8,19-trioxo-1,2,3,3a,5,6,7,8,11,12,21,22,23,24,25,25a-hexadecahydro-10H,19H-9,12-methanocyclopenta[18,19][1,10,3,6,12]dioxatriazacyclononadecino[12,11-b]isoquinoline-10-carboxamide] yielded a Ki of less than 100 pM.

Molecule C=C[C@@H]1C[C@]1(NC(=O)[C@@H]1C[C@@H]2CN1C(=O)[C@H](C1CCCC1)NC(=O)O[C@@H]1CCC[C@H]1CC/C=C/Cn1c(nc3cc(C(F)(F)F)ccc3c1=O)O2)C(=O)NS(=O)(=O)C1CC1 [(3aR,7S,10S,12R,22E,25aS)-7-cyclopentyl-N-((1R,2S)-1-{[(cyclopropylsulfonyl)amino]carbonyl}-2-vinylcyclopropyl)-5,8,19-trioxo-16-(trifluoromethyl)-1,2,3,3a,5,6,7,8,11,12,21,24,25,25a-tetradecahydro-10H,19H-9,12-methanocyclopenta[18,19][1,10,3,6,12]dioxatriazacyclononadecino[11,12-b]quinazoline-10-carboxamide] has a Ki of less than 100 pM.

With C=C[C@@H]1C[C@]1(NC(=O)[C@@H]1C[C@@H]2CN1C(=O)[C@H](C1CCCC1)NC(=O)O[C@H]1C[C@@H]1CCCCCn1c(cc3ccccc3c1=O)O2)C(=O)NS(=O)(=O)C1CC1 [(1aS,5S,8S,10R,23aS)-5-cyclopentyl-N-((1R,2S)-1-{[(cyclopropylsulfonyl)amino]carbonyl}-2-vinylcyclopropyl)-3,6,17-trioxo-1,1a,3,4,5,6,9,10,19,20,21,22,23,23a-tetradecahydro-8H,17H-7,10-methanocyclopropa[18,19][1,10,3,6,12]dioxatriazacyclononadecino[12,11-b]isoquinoline-8-carboxamide] the Ki was 100 to 500 pM.

C=C[C@@H]1C[C@]1(NC(=O)[C@@H]1C[C@@H]2CN1C(=O)[C@H](C1CCCC1)NC(=O)O[C@@H]1CCC[C@H]1CCCCCn1c(ccc(Br)c1=O)O2)C(=O)NS(=O)(=O)C1CC1 [(1R,14R,18R,22S,25S)-6-bromo-22-cyclopentyl-N-((1R,2S)-1-{[(cyclopropylsulfonyl)amino]carbonyl}-2-vinylcyclopropyl)-7,20,23-trioxo-2,19-dioxa-8,21,24-triazatetracyclo[22.2.1.0^3,8.0^14,18]heptacosa-3,5-diene-25-carboxamide] was tested, and the Ki was 100 to 500 pM.

Molecule CC[C@@H]1C[C@]1(NC(=O)[C@@H]1C[C@@H]2CN1C(=O)[C@H](C1CCCC1)NC(=O)O[C@@H]1C[C@H]1CCCCCn1c(cc3ccccc3c1=O)O2)C(=O)NS(=O)(=O)C1CC1 [(1aR,5S,8S,10R,23aR)-5-cyclopentyl-N-((1R,2R)-1-{[(cyclopropylsulfonyl)amino]carbonyl}-2-ethylcyclopropyl)-3,6,17-trioxo-1,1a,3,4,5,6,9,10,19,20,21,22,23,23a-tetradecahydro-8H,17H-7,10-methanocyclopropa[18,19][1,10,3,6,12]dioxatriazacyclononadecino[12,11-b]isoquinoline-8-carboxamide] has a Ki of 100 to 500 pM.

CC[C@@H]1C[C@]1(NC(=O)[C@@H]1C[C@@H]2CN1C(=O)[C@H](C1CCCC1)NC(=O)O[C@@H]1CCC[C@H]1CC/C=C/Cc1c(nc3ccccn3c1=O)O2)C(=O)NS(=O)(=O)C1CC1 [(3aR,7S,10S,12R,22E,25aS)-7-cyclopentyl-N-((1R,2R)-1-{[(cyclopropylsulfonyl)amino]carbonyl}-2-ethylcyclopropyl)-5,8,20-trioxo-1,2,3,3a,5,6,7,8,11,12,21,24,25,25a-tetradecahydro-10H,20H-9,12-methanocyclopenta[r]pyrido[1′,2′:1,2]pyrimido[4,5-k][1,10,3,6]dioxadiazacyclononadecine-10-carboxamide] gave a Ki of 100 to 500 pM.
